Experimental data published in patent US20240368159A1, “HPK1 DEGRADERS, COMPOSITIONS COMPRISING THE HPK1 DEGRADER, AND METHODS OF USING THE SAME” (BIOFRONT LTD, priority 2021, published 2024).

Assays:
HPK1 protein = biological target: T1, HPK1 protein (Homo sapiens, UniProt Q92918); assay: HPK1 enzyme inhibition assay (ADP-Glo); type: biochemical; details: MBP substrate, ATP, ADP-Glo readout
T1 construct: purchased Signal Chem M23-11G-10
T1 sequence (Q92918 1-346 limits assumed): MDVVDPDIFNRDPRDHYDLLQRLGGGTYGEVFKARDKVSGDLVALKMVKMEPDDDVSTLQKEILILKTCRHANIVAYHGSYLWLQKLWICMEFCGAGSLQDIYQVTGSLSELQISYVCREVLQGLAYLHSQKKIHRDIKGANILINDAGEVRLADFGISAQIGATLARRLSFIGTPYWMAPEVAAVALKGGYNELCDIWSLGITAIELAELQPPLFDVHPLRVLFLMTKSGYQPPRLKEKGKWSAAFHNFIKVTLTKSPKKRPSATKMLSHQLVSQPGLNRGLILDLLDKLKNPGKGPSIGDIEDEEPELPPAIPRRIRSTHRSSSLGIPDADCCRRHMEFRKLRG
Procedure: The compound was dissolved in 100% DMSO at the concentration of 10 mM. The HPK1 protein was purchased from Signal Chem (M23-11G-10). 2.5 μL per well of 2×HPK1 protein was added to assay plate containing the test compound, centrifuged at 1500 rpm for 1 minute, and then incubated at 25° C. for 60 minutes. MBP protein was purchased from Signal Chem (M42-51N) and ATP was purchased from Promega (V9102). The two were added 2.5 μL per well mixture of 2×MBP (0.2 ug/ul) and ATP (20 μM), centrifuged at 1500 rpm for 1 minute, then incubated at 25° C. for 60 minutes. Then added 5 μL of ADP-Glo from Promega (V9102) to the assay plate and depleted the unconsumed ATP for 60 minutes. Then centrifuged at 1500 rpm for 1 minute and incubated at 25° C. for 60 minutes. Finally, 10 μL of the kinase assay reagent from Promega (V9102) was added to the assay plate to convert ADP to ATP, centrifuged at 1500 rpm for 1 minute, incubate at 25° C. for 40 minutes. After 40 minutes incubation, the […] was determined. Based on the results, the IC50 value of the compound was calculated.

HPK1 p-SLP-76 = HPK1 p-SLP-76 inhibition assay in human PBMC (HTRF); type: cell-based; details: 6 h compound, anti-CD3 stimulation 20 min
Procedure: Human PBMC were purchased from OriCells (FPB004F-C). Before compound treatment, PBMC were starved in PRMI-1640 medium supplemented with 0.5% FBS overnight. The cell density was adjusted to 1*10^7 cells/mL in assay medium (RPMI-1640 no phenol red with 0.5% FBS) and 16 μL cell suspension was transferred per well to a 384-well plate (Corning #3765). 6× solution of test compound was prepared in assay medium and 4 μL was added per well to the 384-well plate. The plate was then incubated at 37° C., 5% CO2 for 6 h. PBMC in 384-well plate were stimulated with anti-CD3 (BD Biosciences #555329, final conc. is 10 ug/mL) for 20 min at 37° C., 5% CO2 by adding 4 μL 6× antibody solution per well. Phospho-SLP76 HTRF kit was purchased from Cisbio (63ADK076PEH). 8 μL 4× Lysis Buffer was added to 384-well plate after anti-CD3 stimulation. The plate was centrifuged at 1,000 rpm for 1 min, shaken at 250 rpm for 60 min and centrifuged again at 1,000 rpm for 5 min. Afterwards the cell lysates were transferred to the assay plate (Greiner #784075) with 16 μL per well. 4 μL detection antibody mix per well prepared in Detection Buffer was added to the assay plate, followed by centrifugation at 1,000 rpm for 1 min and incubation at 25° C. overnight.

SMILES | IC50 (HPK1 protein) | IC50 (HPK1 p-SLP-76)
CCc1c[nH]c2ncc(-c3cccc(N4CCN(C(=O)CCOCCOCCOc5cccc6c5CN(C5CCC(=O)NC5=O)C6=O)CC4=O)c3)c(Cl)c12 (stereo not shown) [Example 12, 3-(4-(2-(2-(3-(4-(3-(4-chloro-3-ethyl-1H-pyrrolo[2,3-b]pyridin-5-yl)phenyl)-3-oxopiperazin-1-yl)-3-oxopropoxy)ethoxy)ethoxy)-1-oxoisoindolin-2-yl)piperidine-2,6-dione] | 10 to 100 nM | 3000 to 10000 nM
O=C1CCC(N2C(=O)c3ccc(C4=CCN(CCCN5CCN(c6cccc(-c7cnc8[nH]cc(C9CC9)c8c7Cl)c6)C(=O)C5)CC4)cc3C2=O)C(=O)N1 (stereo not shown) [Example 70, 5-(1-(3-(4-(3-(4-chloro-3-cyclopropyl-1H-pyrrolo[2,3-b]pyridin-5-yl)phenyl)-3-oxopiperazin-1-yl)propyl)-1,2,3,6-tetrahydropyridin-4-yl)-2-(2,6-dioxopiperidin-3-yl)isoindoline-1,3-dione] | 10 to 100 nM | 300 to 3000 nM
O=C1CCC(N2C(=O)c3ccc(C4CCN(CCCN5CCN(c6cccc(-c7cnc8[nH]cc(C9CC9)c8c7Cl)c6)C(=O)C5)CC4)cc3C2=O)C(=O)N1 (stereo not shown) [Example 71, 5-(1-(3-(4-(3-(4-chloro-3-cyclopropyl-1H-pyrrolo[2,3-b]pyridin-5-yl)phenyl)-3-oxopiperazin-1-yl)propyl)piperidin-4-yl)-2-(2,6-dioxopiperidin-3-yl) isoindoline-1,3-dione] | ≤ 10 nM | ≤ 300 nM
O=C1CCC(N2C(=O)c3ccc(N4CCN(CCCN5CCN(c6cccc(-c7cnc8[nH]cc(C9CC9)c8c7Cl)n6)C(=O)C5)CC4)cc3C2=O)C(=O)N1 (stereo not shown) [Example 80, 5-(4-(3-(4-(6-(4-chloro-3-cyclopropyl-1H-pyrrolo[2,3-b]pyridin-5-yl)pyridin-2-yl)-3-oxopiperazin-1-yl)propyl)piperazin-1-yl)-2-(2,6-dioxopiperidin-3-yl)isoindoline-1,3-dione] | ≤ 10 nM | ≤ 300 nM
O=C1CCC(N2Cc3cc(N4CCN(CCCN5CCN(c6cccc(-c7cnc8[nH]cc(C9CC9)c8c7Cl)n6)C(=O)C5)CC4)ccc3C2=O)C(=O)N1 (stereo not shown) [Example 81, 3-(5-(4-(3-(4-(6-(4-chloro-3-cyclopropyl-1H-pyrrolo[2,3-b]pyridin-5-yl)pyridin-2-yl)-3-oxopiperazin-1-yl)propyl)piperazin-1-yl)-1-oxoisoindolin-2-yl)piperidine-2,6-dione] | ≤ 10 nM | ≤ 300 nM
O=C1CCC(N2Cc3cc(C4CCN(CCCN5CCN(c6cccc(-c7cnc8[nH]cc(C9CC9)c8c7Cl)n6)C(=O)C5)CC4)ccc3C2=O)C(=O)N1 (stereo not shown) [Example 82, 3-(5-(1-(3-(4-(6-(4-chloro-3-cyclopropyl-1H-pyrrolo[2,3-b]pyridin-5-yl)pyridin-2-yl)-3-oxopiperazin-1-yl)propyl)piperidin-4-yl)-1-oxoisoindolin-2-yl)piperidine-2,6-dione] | ≤ 10 nM | ≤ 300 nM
O=C1CCC(N2Cc3cc(C4=CCN(CCCN5CCN(c6cccc(-c7cnc8[nH]cc(C9CC9)c8c7Cl)n6)C(=O)C5)CC4)ccc3C2=O)C(=O)N1 (stereo not shown) [Example 83] | ≤ 10 nM | ≤ 300 nM
O=C1CCC(N2C(=O)c3ccc(C4CCN(CCCN5CCN(c6cccc(-c7cnc8[nH]cc(C9CC9)c8c7Cl)n6)C(=O)C5)CC4)cc3C2=O)C(=O)N1 (stereo not shown) [Example 84, 5-(1-(3-(4-(6-(4-chloro-3-cyclopropyl-1H-pyrrolo[2,3-b]pyridin-5-yl)pyridin-2-yl)-3-oxopiperazin-1-yl)propyl)piperidin-4-yl)-2-(2,6-dioxopiperidin-3-yl)isoindoline-1,3-dione] | ≤ 10 nM | ≤ 300 nM
O=C1CCC(N2C(=O)c3ccc(C4=CCN(CCCN5CCN(c6cccc(-c7cnc8[nH]cc(C9CC9)c8c7Cl)n6)C(=O)C5)CC4)cc3C2=O)C(=O)N1 (stereo not shown) [Example 85, 5-(1-(3-(4-(6-(4-chloro-3-cyclopropyl-1H-pyrrolo[2,3-b]pyridin-5-yl)pyridin-2-yl)-3-oxopiperazin-1-yl)propyl)-1,2,3,6-tetrahydropyridin-4-yl)-2-(2,6-dioxopiperidin-3-yl)isoindoline-1,3-dione] | ≤ 10 nM | 300 to 3000 nM
O=C1CCC(c2ccc(OC3CCN(CCCN4CCN(c5cccc(-c6cnc7[nH]cc(C8CC8)c7c6Cl)c5)C(=O)C4)CC3)cc2)C(=O)N1 (stereo not shown) [Example 86] | ≤ 10 nM | 300 to 3000 nM
O=C1CCC(c2ccc(C3CCN(CCCCN4CCN(c5cccc(-c6cnc7[nH]cc(C8CC8)c7c6Cl)c5)C(=O)C4)CC3)cc2)C(=O)N1 (stereo not shown) [Example 87] | ≤ 10 nM | ≤ 300 nM
O=C1CCC(N2C(=O)c3ccc(N4CC(CCOC(=O)N5CCN(c6cccc(-c7cnc8[nH]cc(CC(F)F)c8c7Cl)c6)C(=O)C5)C4)cc3C2=O)C(=O)N1 (stereo not shown) [Example 91] | 10 to 100 nM | > 10000 nM
Cn1nc(C2CCC(=O)NC2=O)c2ccc(C3CCN(CCCN4CCN(c5cccc(-c6cnc7[nH]cc(C8CC8)c7c6Cl)c5)C(=O)C4)CC3)cc21 (stereo not shown) [Example 92, 3-(6-(1-(3-(4-(3-(4-chloro-3-cyclopropyl-1H-pyrrolo[2,3-b]pyridin-5-yl)phenyl)-3-oxopiperazin-1-yl)propyl)piperidin-4-yl)-1-methyl-1H-indazol-3-yl)piperidine-2,6-dione] | ≤ 10 nM | 300 to 3000 nM
O=C1CCN(c2cnc3cc(C4=CCN(CCCN5CCN(c6cccc(-c7cnc8[nH]cc(C9CC9)c8c7Cl)c6)C(=O)C5)CC4)ccn23)C(=O)N1 [Example 93, 1-(7-(1-(3-(4-(3-(4-chloro-3-cyclopropyl-1H-pyrrolo[2,3-b]pyridin-5-yl)phenyl)-3-oxopiperazin-1-yl)propyl)-1,2,3,6-tetrahydropyridin-4-yl)imidazo[1,2-a]pyridin-3-yl)dihydropyrimidine-2,4 (1H,3H)-dione] | ≤ 10 nM | 300 to 3000 nM
O=C1CCC(Nc2ccc(C3CCN(CCCS(=O)(=O)N4CCN(c5cccc(-c6cnc7[nH]cc(C8CC8)c7c6Cl)c5)C(=O)C4)CC3)cc2)C(=O)N1 (stereo not shown) [Example 104] | ≤ 10 nM | ≤ 300 nM
O=C1CCC(Nc2ccc(N3CCN(CCCS(=O)(=O)N4CCN(c5cccc(-c6cnc7[nH]cc(C8CC8)c7c6Cl)c5)C(=O)C4)CC3)c(F)c2)C(=O)N1 (stereo not shown) [Example 105, 3-((4-(4-(3-((4-(3-(4-chloro-3-cyclopropyl-1H-pyrrolo[2,3-b]pyridin-5-yl)phenyl)-3-oxopiperazin-1-yl)sulfonyl)propyl)piperazin-1-yl)-3-fluorophenyl)amino)piperidine-2,6-dione] | ≤ 10 nM | ≤ 300 nM
O=C1CCC(N2C(=O)c3ccc(N4CCN(CCCS(=O)(=O)N5CCN(c6cccc(-c7cnc8[nH]cc(CC(F)F)c8c7Cl)c6)C(=O)C5)CC4)cc3C2=O)C(=O)N1 (stereo not shown) [Example 106] | ≤ 10 nM | 300 to 3000 nM
